Measured values as given in patent US4424220A, “Treatment of giardiasis and trichomoniasis” (priority 1982, dated 1984).
In brackets after ≈: the same amount, converted by molar mass. Where two headings read alike, the source gives them in different places.

Legend:
T. foetus = experiment: In vitro anti-Trichomonas foetus activity (50% inhibition of growth); format: cell-based, Trichomonas foetus KV1; details: for IC50: Tritrichomonas foetus, read-out: Anti-T. foetus ED50
Experimental: The activity of these compounds against Giardia lamblia and Trichomonas foetus are shown by the following test:
(§1) About 1.0-2.0 ml of a nutrient medium, for example, the modified Diamond's TPS medium at pH 7.05, together with about 10% by volume of heat-inactiviated serum and about 1% by volume of antibiotic-antimycotic solution is placed in each well of a multiwell plate. To this mixture, an aliquot of a suspension of G. lamblia cells containing about 10^6 organisms is added. Subsequently, each well is inoculated with a known concentration of one of the active compounds. The multiwell plate containing the individual culture samples is incubated under anaerobic conditions at about 37° C. for about 16-24 hrs. The number of viable cells remaining in each well are then counted, such as with a hemacytometer. The percentage of survival is determined by comparison with controls inoculated with DMSO (dimethylsulfoxide) and the effective concentration (in parts per million) for 50% inhibition of growth (ED50) is determined. It is established that the lower the number of the value of ED50, the higher the activity of the active compound.
(§2) In each well of a multiwell plate is placed 1.4 ml of media mix containing Diamond's TPS medium (see Table 2) at pH 7.05, 10% by volume of heat-inactivated fetal bovine serum, and 1% by volume of an antibiotic-antimycotic solution (see Table 3). A suspension of Giardia lamblia is centrifuged at 2,500 xg. for 6 minutes. The cells are resuspended in a small volume of the Diamond's medium, counted, and each well inoculated with approximately 10^6 organisms. A stock solution of fluorouracil is made at a concentration of 150 μg/ml. The wells are then inoculated with various concentrations of the drug. The plates are incubated for 24 hours at 37° C. in an anaerobic Gas Pak jar. After 24 hours of incubation each well is mixed and counted for viable organisms using a hemacytometer. The percentage of survival is determined by comparing the treated wells to controls treated with dimethylsulfoxide. […]

Giardia lamblia [1] = experiment: In vitro anti-Giardia lamblia activity (viable organisms counted by hemacytometer, 50% inhibition of growth); format: cell-based; details: Giardia duodenalis, read-out: Anti-G. lamblia ED50
Experimental: as §1, with “The percentage of survival is determined by comparison with controls inoculated with DMSO (dimethylsulfoxide) and the effective concentration (in parts per million) for 50% inhibition of growth (ED50) is determined. It is established that the lower the number of the value of ED50, the higher the activity of the active compound.” left out
as §2, with “A suspension of Giardia lamblia is centrifuged at 2,500 xg. for 6 minutes.” left out, “A stock solution of fluorouracil is made at a concentration of 150 μg/ml. The wells are then inoculated with various concentrations of the drug. The plates are incubated for 24 hours at 37° C. in an anaerobic Gas Pak jar.” left out

T. vaginalis = experiment: Anti-T. vaginalis activity; format: cell-based, Trichomonas vaginalis; details: procedure of Example 2; refers to Table 1
[2] = cited from earlier work
Giardia lamblia [3] = details: humans; background, The New York Times, June 10, 1980; cited from earlier work

For `[O-][n+]1ccnc(O)c1` [emimycin, 2-hydroxypyrazine-4-oxide], the IC50 (T. foetus; in vitro, 50% inhibition of growth, T. foetus KV1 in Example 2, 37° C., 24 hours) was under 1 µg/mL, the IC50 (Giardia lamblia [1]; in vitro, effective concentration for 50% inhibition of growth, about 10^6 organisms per well, 37° C., anaerobic, 16-24 hrs (Example 1: 24 hours), controls with DMSO) was 22 µg/mL (≈ 196 µM) and the “anti-T. vaginalis activity (in words)” value (T. vaginalis) was “active anti-T. vaginalis agents”.

In the case of `Cc1ncc([N+](=O)[O-])n1CCO` [Flagyl, metronidazole], the adverse side effects ([2]; in vivo) is given as “known to cause adverse side effects” and the “treatment of giardiasis infection” value (Giardia lamblia [3]) is given as “successfully treated”.

For `O=C1OCCN1N=Cc1ccc([N+](=O)[O-])o1` [furazolidione], the adverse side effects ([2]; humans, background, The New York Times, June 10, 1980) is given as “known to cause adverse side effects” and the “treatment of giardiasis infection” value (Giardia lamblia [3]) is given as “successfully treated”.

For `CCN(CC)CCCC(C)Nc1c2ccc(Cl)cc2nc2ccc(OC)cc12` (stereo not drawn) [Atabrine], the adverse side effects ([2]; in vivo) is given as “known to cause adverse side effects” and the “treatment of giardiasis infection” value (Giardia lamblia [3]) is given as “successfully treated”.

With `O=c1[nH]cc(F)c(=O)[nH]1` [fluorouracil, 5-fluoro-2,4-(1H,3H)pyrimidenedione] the IC50 (T. foetus; 24 h) was 3 µg/mL (≈ 23.1 µM), the “anti-T. foetus activity (in words)” value (T. foetus; in vitro, T. foetus KV1, 37° C., 24 hours) was “effective anti-T. foetus agent” and the IC50 (Giardia lamblia [1]) was 100 µg/mL (≈ 769 µM).
